Assay results from PubChem BioAssay (NCI).
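Values below derive from 48-hour exposures of cells grown in 96-well plates, with endpoints linearly interpolated between the two concentrations bracketing the appropriate inhibition level. GI50 is the concentration that inhibits growth by half. TGI: concentration producing complete growth inhibition.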

Tests used:
Assay in all cases: inhibition of tumour cell growth, NCI panel, 48 h
[1] = system: SNB-19 CNS
[2] = system: CCRF-CEM leukemia
[3] = system: K-562 leukemia
[4] = system: IGROV1 ovarian
[5] = system: A498 renal
[6] = system: MDA-MB-435
[7] = system: NCI-H226 lung
[8] = system: M14 melanoma
[9] = system: MDA-MB-231 breast
[10] = system: CAKI-1 renal
[11] = system: HS 578T breast
[12] = system: SR leukemia
[13] = system: MALME-3M melanoma
[14] = system: T-47D breast
[15] = system: MOLT-4 leukemia
[16] = system: HOP-62 NSCLC
[17] = system: COLO 205 colon
[18] = system: NCI-H522 lung
[19] = system: HCT-15 colon
[20] = system: ACHN renal
[21] = system: A549 NSCLC
[22] = system: SW-620 colon
[23] = system: PC-3 prostate
[24] = system: DU-145 prostate
[25] = system: EKVX NSCLC
[26] = system: SK-MEL-2 melanoma
[27] = system: KM12 colon
[28] = system: HCT-116 colon
[29] = system: HOP-92 NSCLC
[30] = system: SK-OV-3 ovarian
[31] = system: RPMI-8226 leukemia
[32] = system: SNB-75 CNS
[33] = system: SF-268 CNS
[34] = system: OVCAR-3 ovarian
[35] = system: RXF 393 renal
[36] = system: OVCAR-5 ovarian
[37] = system: TK-10 renal
[38] = system: SN12C renal
[39] = system: NCI/ADR-RES ovarian
[40] = system: U251 CNS
[41] = system: NCI-H460 lung
[42] = system: UACC-257 melanoma
[43] = system: LOX IMVI melanoma
[44] = system: SF-539 CNS
[45] = system: BT-549 breast
[46] = system: SK-MEL-5 melanoma
[47] = system: OVCAR-8 ovarian
[48] = system: HT29 colon
[49] = system: OVCAR-4 ovarian
[50] = system: UACC-62 melanoma
[51] = system: NCI-H23 lung
[52] = system: SF-295 CNS
[53] = system: HL-60(TB) leukemia
[54] = system: SK-MEL-28 melanoma
[55] = system: UO-31 renal
[56] = system: HCC-2998 colon
[57] = system: MCF7 breast
[58] = system: 786-0 renal

Compound `O=C(NNc1nc2cc(F)ccc2n2cccc12)c1ccncn1` has a GI50 [1] of 396 nM, a TGI [1] greater than 30000 nM and a GI50 [2] of 32.7 nM. The TGI [2] was 428 nM, the GI50 [3] was 176 nM and the TGI [3] was greater than 9890 nM. For the same compound, the GI50 [4] was 211 nM, the TGI [4] was greater than 30000 nM and the GI50 [5] was 745 nM. It also gave a TGI [5] of 3730 nM, a GI50 [6] of 1170 nM and a TGI [6] greater than 30000 nM. For the same compound, the GI50 [7] was 548 nM, the TGI [7] was 10300 nM and the GI50 [8] was 255 nM. The TGI [8] was greater than 11000 nM, the GI50 [9] was 766 nM and the TGI [9] was greater than 30000 nM. It also gave a GI50 [10] of 295 nM, a TGI [10] greater than 30000 nM and a GI50 [11] of 1810 nM. The TGI [11] was greater than 24900 nM, the GI50 [12] was 71.1 nM and the GI50 [13] was 910 nM. It also gave a TGI [13] greater than 21200 nM, a GI50 [14] of 301 nM and a TGI [14] greater than 18300 nM. For the same compound, the GI50 [15] was 109 nM, the GI50 [16] was 94.1 nM and the TGI [16] was 9120 nM. It also gave a GI50 [17] of 272 nM, a TGI [17] greater than 13500 nM and a GI50 [18] of 429 nM. For the same compound, the TGI [18] was greater than 6940 nM, the GI50 [19] was 70.4 nM and the TGI [19] was greater than 20200 nM. It also gave a GI50 [20] of 179 nM, a TGI [20] greater than 30000 nM and a GI50 [21] of 253 nM. The TGI [21] was greater than 30000 nM, the GI50 [22] was 284 nM and the TGI [22] was greater than 24100 nM. For the same compound, the GI50 [23] was 183 nM, the TGI [23] was 13600 nM and the GI50 [24] was 348 nM. The TGI [24] was greater than 23600 nM, the GI50 [25] was 234 nM and the TGI [25] was greater than 16100 nM. It also gave a GI50 [26] of 1130 nM, a TGI [26] greater than 17000 nM and a GI50 [27] of 278 nM. It also gave a TGI [27] greater than 22500 nM, a GI50 [28] of 153 nM and a TGI [28] greater than 11000 nM. The GI50 [29] was 287 nM, the TGI [29] was 11700 nM and the GI50 [30] was 363 nM. For the same compound, the TGI [30] was 14000 nM, the GI50 [31] was 242 nM and the TGI [31] was 2300 nM. For the same compound, the GI50 [32] was 316 nM, the TGI [32] was greater than 25800 nM and the GI50 [33] was 234 nM. It also gave a TGI [33] greater than 30000 nM, a GI50 [34] of 191 nM and a TGI [34] greater than 7020 nM. The GI50 [35] was 612 nM, the TGI [35] was 3070 nM and the GI50 [36] was 1300 nM. The TGI [36] was greater than 30000 nM, the GI50 [37] was 361 nM and the TGI [37] was greater than 19000 nM. For the same compound, the GI50 [38] was 564 nM, the TGI [38] was greater than 30000 nM and the GI50 [39] was 242 nM. It also gave a TGI [39] of 9350 nM, a GI50 [40] of 163 nM and a TGI [40] greater than 30000 nM. The GI50 [41] was 76.4 nM, the TGI [41] was greater than 7440 nM and the GI50 [42] was 712 nM. For the same compound, the TGI [42] was 8250 nM, the GI50 [43] was 168 nM and the TGI [43] was greater than 9230 nM. For the same compound, the GI50 [44] was 435 nM, the TGI [44] was greater than 9300 nM and the GI50 [45] was 841 nM. For the same compound, the TGI [45] was greater than 21300 nM, the GI50 [46] was 398 nM and the TGI [46] was 5410 nM. It also gave a GI50 [47] of 277 nM, a TGI [47] greater than 28400 nM and a GI50 [48] of 354 nM. It also gave a TGI [48] greater than 13500 nM, a GI50 [49] of 162 nM and a TGI [49] greater than 8250 nM. The GI50 [50] was 255 nM, the TGI [50] was 2490 nM and the GI50 [51] was 437 nM. For the same compound, the TGI [51] was greater than 30000 nM, the GI50 [52] was 105 nM and the TGI [52] was 6750 nM. For the same compound, the GI50 [53] was 293 nM, the GI50 [54] was 567 nM and the TGI [54] was greater than 30000 nM. The GI50 [55] was 85.6 nM, the TGI [55] was 4180 nM and the GI50 [56] was 738 nM. The TGI [56] was greater than 23100 nM, the GI50 [57] was 270 nM and the TGI [57] was greater than 15300 nM. The GI50 [58] was 412 nM and the TGI [58] was greater than 15700 nM.
